In one assay the target is T1, PDK1 kinase (Homo sapiens, UniProt O15530).
T1 sequence (O15530 1-556): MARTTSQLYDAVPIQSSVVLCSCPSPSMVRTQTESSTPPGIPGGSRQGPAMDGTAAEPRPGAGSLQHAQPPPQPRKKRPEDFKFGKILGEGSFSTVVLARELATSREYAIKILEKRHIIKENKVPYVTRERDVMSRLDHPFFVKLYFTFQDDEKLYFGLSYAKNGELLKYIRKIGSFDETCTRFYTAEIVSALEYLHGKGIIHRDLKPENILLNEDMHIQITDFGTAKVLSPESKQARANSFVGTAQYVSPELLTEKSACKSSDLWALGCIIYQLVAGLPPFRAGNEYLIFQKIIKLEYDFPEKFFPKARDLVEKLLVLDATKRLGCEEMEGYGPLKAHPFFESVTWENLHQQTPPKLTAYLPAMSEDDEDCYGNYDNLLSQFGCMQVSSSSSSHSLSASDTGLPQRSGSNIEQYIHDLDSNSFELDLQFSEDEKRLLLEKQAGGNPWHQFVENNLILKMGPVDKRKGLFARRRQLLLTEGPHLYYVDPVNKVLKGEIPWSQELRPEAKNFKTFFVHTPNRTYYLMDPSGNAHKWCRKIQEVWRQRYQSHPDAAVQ
In words: PDK1 Kinase Alpha Screen Assay. It is filed as biochemical. The following applies: read-out: PDK1 IC50. An outline of the steps: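 Test compounds were incubated with PDK1 kinase, 10 uM ATP and 50 nM biotinylated peptide substrate for 3-18 hours at pH 7.5 with 2.5% DMSO. Peptide phosphorylation was then detected by AlphaScreen proximity luminescence using a phospho-(Ser/Thr) PKA substrate antibody.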

The test system of the next assay is A2780 cells. In words: Cell Proliferation Assay (Cell Titer Glo), A2780. The following applies: Homo sapiens, 72 h; A2780 cells, 3 days incubation; read-out: CPEC50 A2780. The assay is classed as cell-based. The protocol: IV. Cell Proliferation Assay Protocol:
A2780, PC-3, or PC3MM cells were seeded at 1000 cells/well in 100 μL/well (10.000 cells/mL) growth media in 96-well plates. Cells were allowed to adhere to the bottom of plates for 3-5 hours in a 37° C. 5% CO2 incubator. Compounds were dissolved in DMSO and then transferred to the cell plates. The cells were incubated with the compounds for 3 days in a 37° C. 5% CO2 incubator. The growth medium containing the compounds was then removed from the cells and fresh medium was added, followed by 100 μL of Cell Titer Glo assay reagent (Promega). This mixture was shaken for 1 minute and then incubated without shaking for 10 minutes. Activity determinations for the compounds were made by detection on a Trilux Instrument.
Background: ATP-based viability assays read luminescence as a measure of living cells.

Structures are written as SMILES.

Experimental findings from patent US7932262B2 (Novartis AG, priority 2006, dated 2011) are described below.

The term IC50 denotes the concentration at which inhibition is half-maximal.

Turning to `CC(=O)Nc1cccc(-c2cccc3cnc(Nc4ccc(S(N)(=O)=O)cc4)nc23)c1` [Compound 93, N-{3-[2-(4-Sulfamoyl-phenylamino)-quinazolin-8-yl]-phenyl}-acetamide], the concentration for half-maximal inhibition (IC50) on PDK1 kinase was < 5 µM. Further, in the assay with A2780 cells, the EC50 was < 5 µM.

For `NS(=O)(=O)c1ccc(Nc2ncc3cccc(-c4ccc5c(c4)OCO5)c3n2)cc1` [Compound 95, 4-(8-Benzo[1,3]dioxol-5-yl-quinazolin-2-ylamino)-benzenesulfonamide], the IC50 at PDK1 kinase was < 5 µM. In addition, the EC50 in the assay with A2780 cells was < 5 µM.

For the compound `NC(=O)c1ccc(-c2cccc3cnc(Nc4ccc(S(N)(=O)=O)cc4)nc23)cc1` [Compound 96, 4-[2-(4-Sulfamoyl-phenylamino)-quinazolin-8-yl]-benzamide], the IC50 at PDK1 kinase was < 5 µM. Besides, the EC50 in the assay on A2780 cells was < 5 µM.

Take `NS(=O)(=O)c1ccc(Nc2ncc3cccc(-c4ccnc(F)c4)c3n2)cc1` [Compound 97, 4-[8-(2-Fluoro-pyridin-4-yl)-quinazolin-2-ylamino]-benzenesulfonamide]: the IC50 at PDK1 kinase was < 5 µM. Also, in the assay on A2780 cells, the EC50 was < 5 µM.

`NS(=O)(=O)c1ccc(Nc2ncc3cccc(-c4cccnc4)c3n2)cc1` [Compound 98, 4-(8-Pyridin-3-yl-quinazolin-2-ylamino)-benzenesulfonamide]: the IC50 on PDK1 kinase was < 5 µM. Further, the EC50 with A2780 cells is 5 to 10 µM.

Consider `NS(=O)(=O)c1ccc(Nc2ncc3cccc(-c4ccncc4)c3n2)cc1` [Compound 99, 4-(8-Pyridin-4-yl-quinazolin-2-ylamino)-benzenesulfonamide], for which, at PDK1 kinase, the IC50 was < 5 µM. The EC50 in the assay with A2780 cells was 5 to 10 µM.

For `COCCNc1cc(-c2cccc3cnc(Nc4ccc(S(N)(=O)=O)cc4)nc23)ccn1` [Compound 100, 4-{8-[2-(2-Methoxy-ethylamino)-pyridin-4-yl]-quinazolin-2-ylamino}-benzenesulfonamide], the IC50 at PDK1 kinase is < 5 µM. Also, the EC50 with A2780 cells was < 5 µM.

`CC(=O)NCCNc1cc(-c2cccc3cnc(Nc4ccc(S(N)(=O)=O)cc4)nc23)ccn1` [Compound 101, N-(2-{4-[2-(4-Sulfamoyl-phenylamino)-quinazolin-8-yl]-pyridin-2-ylamino}-ethyl)-acetamide]: the IC50 at PDK1 kinase is < 5 µM. Also, the EC50 in the assay on A2780 cells was < 5 µM.

Consider `NS(=O)(=O)c1ccc(Nc2ncc3cccc(-c4ccnc(NCCN5CCCC5)c4)c3n2)cc1` [Compound 102, 4-{8-[2-(2-Pyrrolidin-1-yl-ethylamino)-pyridin-4-yl]-quinazolin-2-ylamino}-benzenesulfonamide], for which the IC50 on PDK1 kinase was < 5 µM. The EC50 in the assay on A2780 cells is < 5 µM.

For `NS(=O)(=O)c1ccc(Nc2ncc3cccc(-c4cnoc4)c3n2)cc1` [Compound 103, 4-(8-Isoxazol-4-yl-quinazolin-2-ylamino)-benzenesulfonamide], the IC50 on PDK1 kinase was < 5 µM. In addition, the EC50 in the assay on A2780 cells is < 5 µM.

Take `NS(=O)(=O)c1ccc(Nc2ncc3cccc(-c4cn[nH]c4)c3n2)cc1` [Compound 104, 4-[8-(1H-Pyrazol-4-yl)-quinazolin-2-ylamino]-benzenesulfonamide]: the IC50 at PDK1 kinase was < 5 µM. In the assay on A2780 cells, the EC50 was < 5 µM.

On to `NS(=O)(=O)c1ccc(Nc2ncc3cccc(-c4ccnc(N5CCOCC5)c4)c3n2)cc1` [Compound 105, 4-[8-(2-Morpholin-4-yl-pyridin-4-yl)-quinazolin-2-ylamino]-benzenesulfonamide], for which the half-inhibitory concentration (IC50) on PDK1 kinase is < 5 µM. Further, the EC50 with A2780 cells was 5 to 10 µM.

In the case of `CN1CCN(c2cc(-c3cccc4cnc(Nc5ccc(S(N)(=O)=O)cc5)nc34)ccn2)CC1` [Compound 106, 4-{8-[2-(4-Methyl-piperazin-1-yl)-pyridin-4-yl]-quinazolin-2-ylamino}-benzenesulfonamide], at PDK1 kinase, the 50% inhibitory concentration (IC50) is < 5 µM. Besides, the EC50 in the assay on A2780 cells is < 5 µM.

As to `NS(=O)(=O)c1ccc(Nc2ncc3cccc(-c4ccnc(N5CCS(=O)(=O)CC5)c4)c3n2)cc1` [Compound 107, 4-{8-[2-(1,1-Dioxo-1 lambda*6*-thiomorpholin-4-yl)-pyridin-4-yl]-quinazolin-2-ylamino}-benzenesulfonamide], the IC50 on PDK1 kinase is < 5 µM. In addition, the EC50 with A2780 cells was < 5 µM.

Regarding `NS(=O)(=O)c1ccc(Nc2ncc3cccc(-c4ccnc(N5CCNC(=O)C5)c4)c3n2)cc1` [Compound 108, 4-{8-[2-(3-Oxo-piperazin-1-yl)-pyridin-4-yl]-quinazolin-2-ylamino}-benzenesulfonamide], at PDK1 kinase, the IC50 was < 5 µM. For the same compound, in the assay with A2780 cells, the EC50 was < 5 µM.

With `Nc1cc(-c2cccc3cnc(Nc4ccc(S(N)(=O)=O)cc4)nc23)ccn1` [Compound 109, 4-[8-(2-Amino-pyridin-4-yl)-quinazolin-2-ylamino]-benzenesulfonamide], the half-inhibitory concentration (IC50) at PDK1 kinase was < 5 µM. Further, in the assay with A2780 cells, the EC50 lay in the range of 5 to 10 µM.

Consider `NS(=O)(=O)c1ccc(Nc2ncc3cccc(-c4ccccc4)c3n2)cc1` [Compound 110, 4-(8-Phenyl-quinazolin-2-ylamino)-benzenesulfonamide], for which, on PDK1 kinase, the 50% inhibitory concentration (IC50) is < 5 µM. The EC50 in the assay with A2780 cells was < 5 µM.

As to `NC(=O)c1ccc(-c2ccc3cnc(Nc4ccc(S(N)(=O)=O)cc4)nc3c2)cc1F` [Compound 112, 2-Fluoro-4-[2-(4-sulfamoyl-phenylamino)-quinazolin-7-yl]-benzamide], the half-inhibitory concentration (IC50) on PDK1 kinase is < 5 µM. Also, in the assay with A2780 cells, the EC50 is 5 to 10 µM.

In the case of `NS(=O)(=O)c1ccc(Nc2ncc3cccc(C(=O)N4CCCC4)c3n2)cc1` [Compound 113, 4-[8-(Pyrrolidine-1-carbonyl)-quinazolin-2 ylamino]-benzenesulfonamide], the IC50 on PDK1 kinase is < 5 µM. Moreover, in the assay on A2780 cells, the EC50 fell in the range of 5 to 10 µM.

Consider `COCCNC(=O)c1cccc2cnc(Nc3ccc(S(N)(=O)=O)cc3)nc12` [Compound 114, 2-(4-Sulfamoyl-phenylamino)-quinazoline-8-carboxylic acid (2-methoxy-ethyl)-amide], for which, on PDK1 kinase, the IC50 was in the range of 5 to 10 µM. Besides, the EC50 in the assay on A2780 cells was < 5 µM.

In the case of `NS(=O)(=O)c1ccc(Nc2ncc3cccc(C(=O)NCCN4CCCC4)c3n2)cc1` [Compound 115, 2-(4-Sulfamoyl-phenylamino)-quinazoline-8-carboxylic acid (2-pyrrolidin-1-yl-ethyl)-amide], the IC50 on PDK1 kinase is 5 to 10 µM. Besides, the EC50 in the assay with A2780 cells was < 5 µM.

Take `COCCN1CCN(C(=O)c2ccc3cnc(Nc4ccc(S(N)(=O)=O)cc4)nc3c2)CC1` [Compound 116, 4-{7-[4-(2-Methoxy-ethyl)-piperazine-1-carbonyl]-quinazolin-2-ylamino}-benzenesulfonamide]: the IC50 at PDK1 kinase was 10 to 25 µM. Also, the EC50 with A2780 cells was 5 to 10 µM.

Regarding `COc1cc(-c2cccc3cnc(Nc4ccc(S(N)(=O)=O)cc4)nc23)c(Cl)cn1` [Compound 117, 4-[8-(5-Chloro-2-methoxy-pyridin-4-yl)-quinazolin-2-ylamino]-benzenesulfonamide], the IC50 at PDK1 kinase is < 5 µM. Moreover, in the assay with A2780 cells, the EC50 is < 5 µM.

In the case of `CC(C)N1CCN(C(=O)c2ccc3cnc(Nc4ccc(S(N)(=O)=O)cc4)nc3c2)CC1` [Compound 118, 4-[7-(4-Isopropyl-piperazine-1-carbonyl)-quinazolin-2-ylamino]-benzenesulfonamide], the IC50 on PDK1 kinase was in the range of 10 to 25 µM. The EC50 with A2780 cells fell in the range of 5 to 10 µM.

Take `CN1CCC(NC(=O)c2ccc3cnc(Nc4ccc(S(N)(=O)=O)cc4)nc3c2)CC1` [Compound 119, 2-(4-Sulfamoyl-phenylamino)-quinazoline-7-carboxylic acid (1-methyl-piperidin-4-yl)-amide]: the IC50 on PDK1 kinase was < 5 µM. The EC50 in the assay with A2780 cells is 5 to 10 µM.

Consider `NS(=O)(=O)c1ccc(Nc2ncc3cccc(C(=O)N4CCOCC4)c3n2)cc1` [Compound 120, 4-[8-(Morpholine-4-carbonyl)-quinazolin-2-ylamino]-benzenesulfonamide], for which the half-maximal inhibitory concentration (IC50) at PDK1 kinase fell in the range of 5 to 10 µM. Further, the EC50 with A2780 cells lay within 5 to 10 µM.

With `CN1CCN(C(=O)c2cccc3cnc(Nc4ccc(S(N)(=O)=O)cc4)nc23)CC1` [Compound 121, 4-[8-(4-Methyl-piperazine-1-carbonyl)-quinazolin-2-ylamino]-benzenesulfonamide], the IC50 at PDK1 kinase is < 5 µM. Moreover, the EC50 in the assay on A2780 cells was 5 to 10 µM.

With `NS(=O)(=O)c1ccc(Nc2ncc3cccc(C(=O)N4CCS(=O)(=O)CC4)c3n2)cc1` [Compound 122, 4-[8-(1,1-Dioxo-1lambda*6*- thiomorpholine-4-carbonyl)-quinazolin-2-ylamino]-benzenesulfonamide], the IC50 at PDK1 kinase is 10 to 25 µM. Besides, the EC50 in the assay on A2780 cells fell in the range of 5 to 10 µM.

For the compound `NC(=O)c1cccc(-c2ccc3cnc(Nc4ccc(S(N)(=O)=O)cc4)nc3c2)c1` [Compound 123, 3-[2-(4-Sulfamoyl-phenylamino)-quinazolin-7-yl]-benzamide], the IC50 on PDK1 kinase is < 5 µM. Also, the EC50 in the assay with A2780 cells fell in the range of 5 to 10 µM.
